Assay results: patent US10314811B2, “Compositions and methods for selectively inhibiting intestinal carboxylesterase 2 enzyme activity” (The Methodist Hospital, priority 2015, dated 2019)
Where two headings read alike, the source gives them in different places.

Legend:
[1] = test system: CT 26 tumor bearing Balb/cJ mice; assay: In vivo testing of anti-diarrheal activity with CPT-11 in tumor bearing mice (Example 3); conditions: for anti-tumor efficacy, as evaluated by tumor growth, versus CPT-11 only group / losses in body weight induced by CPT-11 treatment / survival rates as compared to CPT-11 alone: 40 mg/kg orally with CPT-11 50 mg/kg i.p.; for anti-tumor efficacy, as evaluated by tumor growth, versus CPT-11 only group: FIG. 1A; for day on which diarrhea occurred: CPT-11 50 mg/kg i.p., CES2 inhibitor (if any) 40 mg/kg orally; for Percentage of mice having diarrhea: CPT-11 50 mg/kg i.p. day 1-10, CES2 inhibitor (if any) 40 mg/kg orally day 0-11; for losses in body weight induced by CPT-11 treatment: FIG. 1B at 14-16 days of treatment; for survival rates as compared to CPT-11 alone: FIG. 1C
Protocol: CPT-11 was purchased from Selleck Chemicals. To obtain an injectable formulation, CPT-11 (20 mg/mL) was dissolved in a solution containing D sorbitol (45 mg/mL) and D lactic acid (0.9 mg/mL) in ddH2O, and heated to ˜70° C. to 90° C. for 5 to 10 min See Trifan et al. 2002, Cancer Res., 62(20):5778 5784. The pH of the solution was adjusted to 3.5 prior to sterile filtration. The solution was stored protected from light until just prior to administration.
Each of these compounds was dissolved separately in 100% DMSO and then diluted into a 0.5% carboxymethylcellulose solution. The final concentration of DMSO was less than 1%.
(§1) Healthy 6-8 week old female Balb/cJ mice were obtained from Jackson Laboratories (Bar Harbor, Me. USA). CT 26 tumor cells, derived from a murine Balb/c colon adenocarcinoma, were used to form tumors by subcutaneous injection of tumor cells into the posterior mid-dorsum of the mice. When tumors reached ˜500 mm^3 (˜10 days after implantation, defined as day 1), treatment was initiated. The mice were divided into five groups of 3-4 animals each and treated as follows:
(1) Vehicle group, mice received an equivalent volume of CPT-11 vehicle i.p. from day 1 to day 10, and an equivalent volume of compound vehicle orally from day 0 to day 11;
(2) CPT-11 only group, mice received CPT-11 (50 mg/kg) i.p. from day 1 to day 10, and an equivalent volume of compound vehicle orally from day 0 to day 11;
CPT-11 and the CES2 inhibitors were each administrated once per day during the experiment.
The CES2 inhibitor treatment groups were compared to the CPT-11 only group and to the vehicle control group. Four major parameters were examined to quantify the effect of CES2 inhibitors, namely, body weight change, presence of diarrhea, survival time, and average tumor size.

[2] = target: T1, human liver CES1 (Homo sapiens, UniProt P23141); assay: CES1 enzyme assay (4-nitrophenyl acetate hydrolysis); format: biochemical; conditions: for inhibition of CES1: concentrations as high as 300 μM
T1 construct: purchased Sigma Aldrich E0162
T1 sequence (P23141 18-567): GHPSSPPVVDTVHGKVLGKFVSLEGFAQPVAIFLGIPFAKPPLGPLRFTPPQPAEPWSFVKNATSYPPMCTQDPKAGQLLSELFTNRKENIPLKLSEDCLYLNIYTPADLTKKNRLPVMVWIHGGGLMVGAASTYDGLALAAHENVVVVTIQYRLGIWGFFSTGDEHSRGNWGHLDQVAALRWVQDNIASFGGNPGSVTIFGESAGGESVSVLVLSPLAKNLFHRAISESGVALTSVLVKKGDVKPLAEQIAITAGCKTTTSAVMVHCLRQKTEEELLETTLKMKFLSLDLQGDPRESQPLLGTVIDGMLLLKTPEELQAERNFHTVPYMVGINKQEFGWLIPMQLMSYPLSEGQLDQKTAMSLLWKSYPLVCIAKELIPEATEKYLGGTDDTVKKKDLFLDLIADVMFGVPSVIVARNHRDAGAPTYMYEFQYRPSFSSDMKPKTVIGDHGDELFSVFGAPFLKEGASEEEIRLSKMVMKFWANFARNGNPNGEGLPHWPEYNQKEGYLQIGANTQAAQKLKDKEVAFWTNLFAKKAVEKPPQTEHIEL
Source text: CES2 and CES1 enzyme assays were used for primary screening and IC50 determination of potential inhibitors. The assays are well established and widely used in compound discovery and lead optimization for CES inhibitors. See, e.g., Wadkins et al. 2004, Mol. Pharmacol. 65(6):1336 1343; Wadkins et al. 2005, J. Med. Chem. 48(8):2906 2915; Hicks et al. 2009, J. Med. Chem. 52(12):3742 3752; Hyatt et al. 2007, J. Med. Chem. 50(8):1876 1885; Hicks et al. 2007, Bioorg. Med. Chem. 15(11):3801 3817; Hyatt et al. 2007, J. Med. Chem., 50(23):5727 5734; Wadkins et al. 2007, Mol. Pharmacol. 71(3):713 723; and Young et al. 2010, J. Med. Chem., 53(24):8709 8715. CES converts esters into the corresponding alcohol and carboxylic acid. The esterase substrate, 4 nitrophenyl acetate (4 NPA), was used to detect enzyme activity. The recombinant purified intestinal CES2 and human liver CES1 enzymes and 4 NPA were purchased from Sigma Aldrich (product ID E0412, E0162, and N8130, respectively). […] The assays were conducted in a total volume of 300 μL in 96 well microtiter plates. Reaction mixtures consisted of the following: 100 μL 50 mM HEPES with 10 units of enzyme, 10 μL compound solution (various concentrations), 2 μL 300 mM 4 NPA and 188 μL 50 mM HEPES, pH 7.4. The test compound and 4 NPA solution were added to the wells first and then the reaction was initiated by the addition of enzyme solution. After incubation for 15 min. at 25° C., absorbance at 405 nm was measured using a microplate reader.

[3] = test system: CT 26 tumor bearing Balb/cJ mice; assay: In vivo efficacy of CPT-11 plus hesperetin at different doses (Example 4); conditions: for Percentage of mice having diarrhea: CPT-11 alone
Source text: as §1

[4] = target: T2, recombinant purified intestinal CES2 (Homo sapiens, UniProt O00748); assay: CES2 enzyme assay (4-nitrophenyl acetate hydrolysis); format: biochemical
T2 construct: purchased Sigma Aldrich E0412
T2 sequence (O00748 27-559): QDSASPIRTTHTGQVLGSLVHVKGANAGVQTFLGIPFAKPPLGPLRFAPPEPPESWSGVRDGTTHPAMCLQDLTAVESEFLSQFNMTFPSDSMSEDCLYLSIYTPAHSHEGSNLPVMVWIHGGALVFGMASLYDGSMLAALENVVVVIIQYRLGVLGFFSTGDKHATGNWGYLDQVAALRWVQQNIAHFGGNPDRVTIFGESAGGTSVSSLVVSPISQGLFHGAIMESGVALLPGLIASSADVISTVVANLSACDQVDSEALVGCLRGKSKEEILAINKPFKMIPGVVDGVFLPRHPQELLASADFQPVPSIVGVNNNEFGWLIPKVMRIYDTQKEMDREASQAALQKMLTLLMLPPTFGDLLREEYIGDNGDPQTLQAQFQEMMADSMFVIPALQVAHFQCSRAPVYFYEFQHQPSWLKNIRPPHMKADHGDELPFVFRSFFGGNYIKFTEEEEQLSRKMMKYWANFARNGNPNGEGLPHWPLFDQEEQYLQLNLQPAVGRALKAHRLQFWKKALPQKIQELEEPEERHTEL
Protocol: CES2 and CES1 enzyme assays were used for primary screening and IC50 determination of potential inhibitors. […] The esterase substrate, 4 nitrophenyl acetate (4 NPA), was used to detect enzyme activity. The recombinant purified intestinal CES2 and human liver CES1 enzymes and 4 NPA were purchased from Sigma Aldrich (product ID E0412, E0162, and N8130, respectively). […] The assays were conducted in a total volume of 300 μL in 96 well microtiter plates. Reaction mixtures consisted of the following: 100 μL 50 mM HEPES with 10 units of enzyme, 10 μL compound solution (various concentrations), 2 μL 300 mM 4 NPA and 188 μL 50 mM HEPES, pH 7.4. The test compound and 4 NPA solution were added to the wells first and then the reaction was initiated by the addition of enzyme solution. After incubation for 15 min. at 25° C., absorbance at 405 nm was measured using a microplate reader.

[5] = 4 NPA substrate, 15 min at 25° C., pH 7.4, read-out: IC50 CES1 Assay
[6] = both hesperetin doses (20 mg/kg and 100 mg/kg) with CPT-11

With O=C1C[C@@H](c2ccc(O)cc2)Oc2cc(O)cc(O)c21 [naringenin] the “anti-tumor efficacy, as evaluated by tumor growth, versus CPT-11 only group” value (“anti-tumor efficacy … versus CPT-11 only group” below) [1] was “No significant changes” and the IC50 [2, 5] was 159 µM.
For CCc1c2c(nc3ccc(OC(=O)N4CCC(N5CCCCC5)CC4)cc13)-c1cc3c(c(=O)n1C2)COC(=O)[C@]3(O)CC [CPT-11, irinotecan], the “day on which diarrhea occurred” value [1] was 9 days, the “Percentage of mice having diarrhea” value ([1]; day 9 after treatment) was 50% and the “Percentage of mice having diarrhea” value ([1]; day 10 after treatment) was 50%. The “Percentage of mice having diarrhea” value ([1]; day 11 after treatment) was 75%, the “Percentage of mice having diarrhea” value ([1]; day 12 after treatment) was 75% and the “Percentage of mice having diarrhea” value ([1]; day 13 after treatment) was 75%. For the same compound, the “Percentage of mice having diarrhea” value ([1]; day 14 after treatment) was 75%, the “Percentage of mice having diarrhea” value ([3]; day 8 after treatment) was 10% and the “Percentage of mice having diarrhea” value ([3]; day 9 after treatment) was 20%. For the same compound, the “Percentage of mice having diarrhea” value ([3]; day 10 after treatment) was 40%, the “Percentage of mice having diarrhea” value ([3]; day 11 after treatment) was 70% and the “Percentage of mice having diarrhea” value ([3]; day 12 after treatment) was 70%.
For O=C(/C=C/c1ccccc1)c1ccc(O)cc1O [2′,4′ dihydroxychalcone, 2′,4′-dihydroxychalcone], the “Selectivity (IC50 CES1)/(IC50 CES2)” value [4] was over 180, the IC50 ([4]; 4 NPA substrate, 15 min at 25° C., pH 7.4) was 1.66 µM and the “anti-tumor efficacy … versus CPT-11 only group” value [1] was “No significant changes”. For the same compound, the “losses in body weight induced by CPT-11 treatment” value [1] was “reversed”, the “survival rates as compared to CPT-11 alone” value [1] was “improved” and the “day on which diarrhea occurred” value [1] was 13 days. The “Percentage of mice having diarrhea” value ([1]; day 12 after treatment) was “no mice”, the IC50 [2, 5] was over 300 µM and the “inhibition of CES1” value [2] was “No significant inhibition”.
For COc1ccc([C@@H]2CC(=O)c3c(O)cc(O)cc3O2)cc1O [hesperetin], the “anti-tumor efficacy … versus CPT-11 only group” value [1] was “No significant changes”, the “losses in body weight induced by CPT-11 treatment” value [1] was “reversed” and the “survival rates as compared to CPT-11 alone” value [1] was “improved”. For the same compound, the “day on which diarrhea occurred” value [1] was 12 days, the “Percentage of mice having diarrhea” value ([1]; day 12 after treatment) was 25% and the “number of animals exhibiting diarrhea as compared to CPT-11 alone” value [3, 6] was “reduced”. The “onset of diarrhea as compared to CPT-11 alone” value [3, 6] was “significantly delayed”, the “survival of animals as compared to CPT-11 alone” value ([3]; co-administering hesperetin and CPT-11, both hesperetin doses, FIG. 2C) was “improved” and the “loss in body weight induced by CPT-11 administration” value ([3]; co-administration of hesperetin at both doses tested, FIG. 2B) was “reduced”. The “anti-tumor efficacy of CPT-11 on co-administration” value ([3]; either dose of hesperetin (20 mg/kg or 100 mg/kg)) was “improved”, the “day of onset of diarrhea” value ([3]; hesperetin 20 mg/kg with CPT-11) was 10 days and the “day of onset of diarrhea” value ([3]; hesperetin 100 mg/kg with CPT-11) was 12 days. For the same compound, the IC50 [2] was over 300 µM and the “inhibition of CES1” value [2] was “No significant inhibition”.
